# Experimental data published in US9856348B2, “Multifunctional degradable nanoparticles with control over size and functionalities” (Vanderbilt University, priority 2007, dated 2018).
# Key:
# [1] = test system: mice with microbead-elevated intraocular pressure
# Protocol: Two groups of mice (N=3 each) were compared to determine the effect of a single intravitreal injection of brimonidine-laced nanoparticle relative to a single topical drop (eyedrop) of clinical-grade brimonidine. For each mouse, intraocular pressure (IOP) was acutely elevated by an injection (1 μl) of polystyrene microbeads into the anterior chamber of the eye. This induces a 35-40% elevation in IOP that persists for 3-4 weeks. […] IOP was tracked using TonoPen XL measurements until any lowering effect was dissipated.
# [2] = test system: human microvascular endothelial cells (HMEC); test: Internalization of FITC-dendrimer conjugates, temperature effect and controls; assay type: cell-based; settings: 10 uM, 60 min, 37° C.
# Protocol: Internalization of FD-1 and FD-2 in mammalian cells was assessed using two different cell lines and a previously described method [Futaki, S.; Nakase, I.; Suzuki, T.; Youjun, Y.; Sugiura, Y. Biochemistry 2002, 41, 7925.] with NIH-3T3 fibroblasts and HMEC (human microvascular endothelial cells) and a Zeiss LSM 510 confocal microscope. […] [Futaki, S.; Nakase, I.; Suzuki, T.; Youjun, Y.; Sugiura, Y. Biochemistry 2002, 41, 7925.; Vivès, E.; Brodin, P.; Lebleu, B. J. Biol. Chem. 1997, 272, 16010.] Furthermore, the extent of internalization increased in an incubation time-dependent manner, and it was observed that after just 10 min, the fluorescence intensity of cells treated with FD-2 was near saturation. […] L. Org. Lett. 2005, 7, 4815.] but also regulate the subcellular localization of the molecule and its putative cargo. […] Therefore, the dendrimer with a hexyl spacer crosses the cell membrane faster than the molecule with an ethyl chain. On the other hand, the localization patterns can also be controlled by the length of the spacer. FD-1 with the short spacer appeared to be localized everywhere in the cell, but highly concentrated in the nucleus. […] These translocation features of guanidinlyated dendritic scaffolds as carriers can be important for intracellular delivery of cargo molecules to specific subcellular compartments (e.g., cytosol or nucleus). […]
compound,measurement,setting,value
"Brc1c(NC2=NCCN2)ccc2nccnc12 [topical brimonidine, 5-Bromo-N-(4,5-dihydro-1H-imidazol-2-yl)quinoxalin-6-amine]",IOP one day after application,[1]; single application (1 μl) on day 4 after microbead injection,normal levels
same,time after administration at which IOP returned to elevated levels,[1]; single topical application (1 μl),Six
fluorescein isothiocyanate [free FITC],fluorescence of treated cells (control experiments),[2],no
